Source: US20110039834A1, “NOVEL PHARMACEUTICAL COMPOSITIONS FOR OPTIMIZING SUBSTITUTION TREATMENTS AND EXTENDING THE PHARMACOPOEIA TO GLOBAL TREATMENT OF ADDICTIONS” (TRIMARAN LIMITED, priority 2006, published 2011)

Legend:
[1] = test system: male mice of OF1 strain; assay: Behavioral sensitization to morphine (locomotor activity on D15 after morphine injection); assay type: in vivo
Procedure: The locomotor activity is influenced by a wide diversity of factors.
The experimental protocol used may be described in the following manner:
Dose of amisulpride (AMS): 0.5 mg/kg Dose of buprenorphine (Bup): 0.1 mg/kg
The animals received from D1 to D7 either morphine or physiological saline, from Day D8 to D14 either physiological saline, or buprenorphine, amisulpride, buprenorphine and amisulpride according to the scheme:

[2] = test system: male mice of OF1 strain; assay: Measurement of locomotor activity: determination of the doses of amisulpride; assay type: in vivo
Procedure: The animals used in this study are male mice of OF1 strain weighing about 20 g at the start of the experiments (Charles River, France). They live in an environment whose daily lighting cycle (07:30h; 17:30h) is constant throughout the year, and the temperature is maintained at about 22° C. The mice have free access to water and food, and the experiments are performed in accordance with the international rules on ethics in animal experimentation.
The mice are placed individually in a sound-insulated plastic cage ([…]) and are exposed to a light intensity of 5 lux. The animals' movements are captured by photoelectric cells for 60 minutes and recorded by computer. The experiment starts immediately after injection of the product. In this study, the term “locomotor activity” takes into account only the horizontal movements of the animals.
A one-factor (treatment) analysis of variance (ANOVA) is used for all the behavioral tests performed, followed by a Student-Newman-Keuls test if p<0.05 in the ANOVA. In all the cases, the significance is accepted once p<0.05.
A molecule endowed with dopaminergic antagonist activity reduces locomotor activity. It is this property that is exploited in order to determine the dose after which amisulpride has dopaminergic antagonist activity in mice (i.e. an effect on the D2 and D3 post-synaptic receptors, and not on the D2 and D3 auto-receptors). […]

Compound | behavioral sensitization on D15 relative to animals chronically treated with saline ([1]; mice chronically treated D1 to D7, locomotor activity on D15 after morphine 10 mg/kg) | reduction of the behavioral sensitization to morphine ([1]; morphine D1 to D7, treatment between D8 and D14 (amisulpride 0.5 mg/kg, buprenorphine 0.1 mg/kg), morphine 10 mg/kg on D15) | effect on locomotor activity at low dose ([2]; 0.5 mg/kg) | dose at and above which the decrease in locomotor activity is significant ([2]; doses tested 0.5, 2, 10, 20 and 50 mg/kg, horizontal movements over 60 minutes)
CN1CC[C@]23c4c5ccc(O)c4O[C@H]2[C@@H](O)C=C[C@H]3[C@H]1C5 [morphine] | show behavioral sensitization | – | – | –
CCN1CCCC1CNC(=O)c1cc(S(=O)(=O)CC)c(N)cc1OC (stereo not shown) [amisulpride] | – | does not make it possible to reduce this behavioral sensitization | locomotor hyperactivity is observed | ≥ 10 mg/kg
